The subject of data set [1] is T. b. brucei. Put plainly: Cell-based screening against T. b. brucei. Set-up: species or system Trypanosoma brucei brucei. The note with it: Screening Data, two values per compound. The protocol: The bloodstream form trypomastigotes of the three strains are maintained according to standard protocols established at STI.
Drug sensitivity assays are performed in sterile 96-well microtiter plates, with or without serial drug dilutions. The highest concentration for the test compounds is 90 μg/ml. Each drug is tested in duplicate. After 72 hours of incubation the plates are inspected microscopically to assure growth of the controls to determine the minimum inhibitory concentration (MIC), i.e., the lowest drug concentration at which no trypanosomes with normal morphology and motility can be seen compared to control wells. Cell viability is measured by Alamar blue staining and IC50 values are calculated.
Active compounds (IC50<0.2 μg/ml) are tested against the Trypanosoma brucei gambiense STIB 930 and the multi-drug resistant T. b. brucei STIB 950 following the same protocol as described above.
This example provides data relating to the biological screening results. MDL 73811 and selected new compounds 1-7 were tested against a variety of cell-based organisms and enzymes and the IC50 measured. In vitro ADME profiles were also obtained. Solubility, permeability, microsomal/hepatocyte stability, cychrome P450 inhibition and plasma protein binding characteristics were probed for each of the compounds. The methodology for these tests are described in previous paragraphs. The results are summarized in the following 2 charts.

Data set [2] deals with T1, CYP1A2 (Homo sapiens, UniProt P05177).
T1 sequence (P05177 1-516): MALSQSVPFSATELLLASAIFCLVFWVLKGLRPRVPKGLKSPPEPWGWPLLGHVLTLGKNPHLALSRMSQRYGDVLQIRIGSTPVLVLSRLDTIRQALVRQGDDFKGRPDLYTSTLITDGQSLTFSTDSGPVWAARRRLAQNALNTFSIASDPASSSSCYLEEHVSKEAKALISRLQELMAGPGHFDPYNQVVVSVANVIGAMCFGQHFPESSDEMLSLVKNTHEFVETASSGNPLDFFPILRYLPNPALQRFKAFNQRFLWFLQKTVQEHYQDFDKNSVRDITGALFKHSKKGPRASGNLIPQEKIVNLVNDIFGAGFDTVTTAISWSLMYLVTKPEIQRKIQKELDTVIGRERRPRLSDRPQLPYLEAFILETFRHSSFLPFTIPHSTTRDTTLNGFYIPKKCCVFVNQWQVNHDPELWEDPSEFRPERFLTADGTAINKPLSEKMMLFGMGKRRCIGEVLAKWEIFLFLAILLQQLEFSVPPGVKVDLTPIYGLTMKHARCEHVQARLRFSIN
The data set can be described thus: Cytochrome P450 inhibition, CYP1A2. An excerpt: (§1) This cytochrome P450 high throughput IC50 inhibition assay is utilized for screening potential inhibitors of the 5 major human CYP isozyme catalytic activities (CYP3A4, 2D6, 2C9, 2C19, and 1A2).

Data set [3] concerns the target CYP2C9 (Homo sapiens, UniProt P11712). The data set can be described thus: Cytochrome P450 inhibition, CYP2C9.
Excerpt: as §1

Data set [4] has as its target CYP2C19 (Homo sapiens, UniProt P33261). Put plainly: Cytochrome P450 inhibition, CYP2C19.
Excerpt: as §1

Data set [5] relates to Schistosomes lavae. The data set can be described thus: Screening against Schistosomes, larvae. Type of data set: cell-based. The note with it: Screening Data.
The target in data set [6] is CYP3A4 (Homo sapiens, UniProt P08684). The data set can be described thus: Cytochrome P450 inhibition, CYP3A4.
Excerpt: as §1

Data set [7] is described as follows: LogD.
Data set [8] relates to Schistosomes adult. Put plainly: Screening against Schistosomes, adult. The format is cell-based. Particulars: Screening Data.
The target in data set [9] is CYP2D6 (Homo sapiens, UniProt P10635). Put plainly: Cytochrome P450 inhibition, CYP2D6.
Excerpt: as §1

The nature of data set [10]: Solubility in phosphate buffer. The format is physicochemical. Particulars: phosphate buffer, aqueous buffer, kinetic from dmso stock; Example 12 chart; pH 7.4. The protocol: A stock solution for each test compound was prepared at 25 mM in DMSO. These were diluted into phosphate buffer and equilibrated for 16 hours at room temperature, and then filtered to remove precipitated compound. The UV absorbance of this equilibrated sample was compared to a single point reference standard.

pIC50: −log10 of the molar value.

One may read the pIC50 as −log10 of the IC50, conventionally taken in molar units. By logD is commonly meant lipophilicity at a set pH, counting ionised and neutral species. By solubility is commonly meant how much of the substance goes into solution per volume. Read a low solubility as a poorly soluble substance.

Chain of CYP2C9 (P11712 whole entry): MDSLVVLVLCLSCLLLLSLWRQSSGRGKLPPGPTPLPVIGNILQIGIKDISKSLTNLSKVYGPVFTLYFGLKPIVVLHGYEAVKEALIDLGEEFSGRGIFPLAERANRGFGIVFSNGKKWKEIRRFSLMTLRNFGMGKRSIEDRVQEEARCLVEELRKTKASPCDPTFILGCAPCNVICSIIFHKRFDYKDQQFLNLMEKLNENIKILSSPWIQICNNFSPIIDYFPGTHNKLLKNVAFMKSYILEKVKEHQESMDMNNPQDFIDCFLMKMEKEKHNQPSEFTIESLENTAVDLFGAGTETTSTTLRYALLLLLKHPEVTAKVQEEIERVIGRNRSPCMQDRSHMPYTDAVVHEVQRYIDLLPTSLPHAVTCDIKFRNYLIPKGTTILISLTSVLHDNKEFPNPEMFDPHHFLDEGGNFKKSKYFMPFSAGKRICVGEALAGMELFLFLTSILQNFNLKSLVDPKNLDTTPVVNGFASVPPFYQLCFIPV
Chain of CYP2D6 (P10635 whole entry): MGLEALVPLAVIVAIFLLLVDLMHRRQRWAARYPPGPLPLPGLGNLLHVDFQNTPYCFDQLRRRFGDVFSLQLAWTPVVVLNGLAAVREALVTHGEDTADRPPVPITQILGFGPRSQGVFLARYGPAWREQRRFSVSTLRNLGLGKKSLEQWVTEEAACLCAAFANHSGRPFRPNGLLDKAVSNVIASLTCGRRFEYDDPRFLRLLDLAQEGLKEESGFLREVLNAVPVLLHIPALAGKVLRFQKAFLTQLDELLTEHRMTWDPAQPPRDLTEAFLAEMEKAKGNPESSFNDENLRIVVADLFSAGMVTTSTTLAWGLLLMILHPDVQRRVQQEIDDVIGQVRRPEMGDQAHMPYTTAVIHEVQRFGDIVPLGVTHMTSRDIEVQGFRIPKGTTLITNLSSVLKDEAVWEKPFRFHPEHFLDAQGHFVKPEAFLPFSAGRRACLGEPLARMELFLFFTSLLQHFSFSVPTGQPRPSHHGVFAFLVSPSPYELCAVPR
Chain of CYP3A4 (P08684 whole entry): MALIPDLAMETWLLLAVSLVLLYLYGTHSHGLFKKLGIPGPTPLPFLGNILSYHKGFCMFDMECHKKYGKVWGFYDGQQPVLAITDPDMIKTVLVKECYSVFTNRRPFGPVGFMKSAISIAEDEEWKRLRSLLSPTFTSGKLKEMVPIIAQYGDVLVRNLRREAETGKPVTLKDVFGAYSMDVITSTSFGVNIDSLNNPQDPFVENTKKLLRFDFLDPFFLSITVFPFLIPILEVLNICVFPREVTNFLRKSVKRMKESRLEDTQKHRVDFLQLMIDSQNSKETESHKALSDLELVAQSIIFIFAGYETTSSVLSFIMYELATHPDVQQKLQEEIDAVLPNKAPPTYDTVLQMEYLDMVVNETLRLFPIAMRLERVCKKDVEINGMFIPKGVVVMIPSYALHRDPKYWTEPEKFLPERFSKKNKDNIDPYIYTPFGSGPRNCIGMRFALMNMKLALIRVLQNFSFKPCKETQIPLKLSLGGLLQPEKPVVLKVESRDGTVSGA
Chain of CYP2C19 (P33261 whole entry): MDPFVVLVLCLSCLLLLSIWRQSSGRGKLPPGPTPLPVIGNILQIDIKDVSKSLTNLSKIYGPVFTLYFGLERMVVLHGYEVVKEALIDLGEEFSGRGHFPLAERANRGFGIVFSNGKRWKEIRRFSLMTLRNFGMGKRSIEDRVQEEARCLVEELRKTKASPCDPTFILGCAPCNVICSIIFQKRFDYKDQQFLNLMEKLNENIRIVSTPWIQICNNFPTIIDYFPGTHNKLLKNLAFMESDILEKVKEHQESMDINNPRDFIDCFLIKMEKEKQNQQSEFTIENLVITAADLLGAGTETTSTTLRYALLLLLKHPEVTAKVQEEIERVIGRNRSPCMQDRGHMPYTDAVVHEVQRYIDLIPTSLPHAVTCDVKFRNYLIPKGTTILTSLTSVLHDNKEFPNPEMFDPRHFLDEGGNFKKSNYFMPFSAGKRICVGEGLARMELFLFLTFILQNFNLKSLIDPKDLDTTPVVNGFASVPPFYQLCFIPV

Consider `Cc1nc(N)c2ncn([C@@H]3O[C@H](CN(C)C/C=C\CN)[C@@H](O)[C@H]3O)c2n1` [Compound 5], for which the pIC50 is less than 4.85 in [1] (Trypanosoma brucei); less than 5.30 in data set [2]; less than 5.30 in [3]; less than 5.30 in data set [4]; less than 5.00 in data set [5]; less than 5.30 in data set [6]. The pIC50 is less than 5.00 in data set [8] and less than 5.30 in data set [9]. In data set [7], the logD is less than 1. In [10], the solubility at 16 hours is greater than 49 µg/mL.
For the molecule `CCc1nc2c(N)ncnc2n1[C@@H]1O[C@H](CN(C)C/C=C\CN)[C@@H](O)[C@H]1O` [Compound 6], the pIC50 in data set [1] was 6.19; in data set [1] (Trypanosoma brucei), 5.94; in data set [2], less than 5.30; in data set [3], less than 5.30; in data set [4], less than 5.30; in data set [5], less than 5.00. The negative logarithm of the IC50 (pIC50) is less than 5.30 in [6], less than 5.00 in data set [8] and less than 5.30 in data set [9]. This molecule gave a logD in [7] of less than 1. This molecule showed a solubility at 16 hours in [10] greater than 51 µg/mL.
Regarding `CCCc1nc2c(N)ncnc2n1[C@@H]1O[C@H](CN(C)C/C=C\CN)[C@@H](O)[C@H]1O` [Compound 7], the pIC50 was 5.03 in data set [1]; 4.90 in data set [1] (Trypanosoma brucei); less than 5.30 in data set [2]; less than 5.30 in data set [3]; less than 5.30 in data set [4]; less than 5.00 in [5]. Besides, the pIC50 was less than 5.30 in data set [6], less than 5.00 in [8] and less than 5.30 in data set [9]. In addition, the pH-dependent lipophilicity (logD) in data set [7] is less than 1. Moreover, the solubility at 16 hours in [10] was greater than 52 µg/mL.

For the origin of these results see patent publication US8633168B2, “Inhibitors of S-adenosyl-L-methionine decarboxylase” (Genzyme Corporation, priority 2007, dated 2014).
